From patent publication US5393875A, “Amino acid derivatives having renin inhibiting activity” (Hoffmann-La Roche Inc., priority 1991, dated 1995) come the findings set out here.

The structures appear in SMILES notation. Some results are limits rather than exact numbers.

For one experiment, the target named is T1, human renin (Homo sapiens, UniProt P00797).
T1 sequence (P00797 67-406): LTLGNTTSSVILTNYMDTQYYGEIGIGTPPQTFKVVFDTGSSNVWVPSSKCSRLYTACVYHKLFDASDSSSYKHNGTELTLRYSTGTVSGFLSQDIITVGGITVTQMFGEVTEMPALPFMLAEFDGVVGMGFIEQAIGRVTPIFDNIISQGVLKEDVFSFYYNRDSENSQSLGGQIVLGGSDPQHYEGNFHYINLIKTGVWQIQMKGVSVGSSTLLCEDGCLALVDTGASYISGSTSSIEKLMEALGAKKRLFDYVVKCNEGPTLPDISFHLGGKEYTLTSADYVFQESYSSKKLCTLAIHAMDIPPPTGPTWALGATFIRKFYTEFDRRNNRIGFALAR
The experiment can be described thus: Test A: in vitro test with pure human renin. In kind it is biochemical. The note with it: human tetradecapeptide substrate, pH 7.4, 3 hours at 37° C., angiotensin I by RIA. Here is the method:
A. In vitro test with pure human renin
The test is carried out in Eppendorf test tubes. The incubation mixture consists of (1) 100 μl of human renin in buffer A (0.1M sodium phosphate solution, pH 7.4, containing 0.1% bovine serum albumin, 0.1% sodium azide and 1 mM ethylenediaminetetraacetic acid), sufficient for a renin activity of 2-3 ng of angiotensin I/ml/hr; (2) 145 μl of buffer A: (3) 30 μl of 10 μM human tetradecapeptide renin substrate (hTD) in 10 mM hydrochloric acid: (4) 15 μl of dimethyl sulphoxide with or without inhibitor and (5) 10 μl of a 0.03 molar solution of hydroxyquinoline sulphate in water.
The samples are incubated for three hours at 37° C. and, respectively, 4° C. in triplicate. 2×100 μl samples per experimental test tube are used in order to measure the production of angiotensin I via RIA (standard radioimmunoassay; clinical assay solid phase kit). Cross reactivities of the antibody used in the RIA are: angiotensin I 100%; angiotensin II 0.0013%; hTD (angiotensin I-Val-Ile-His-Ser-OH 0.09%. The production of angiotensin I is determined by the difference between the experiment at 37° C. and that at 4° C.
(§1) The following controls are carried out:
(a) Incubation of hTD samples without renin and without inhibitor at 37° C. and 4° C. The difference between these two values gives the base value of the angiotensin I production.
(b) Incubation of hTD samples with renin, but without inhibitor at 37° C. and 4° C. The difference between these values gives the maximal value of angiotensin I production.
In each sample the base value of the angiotensin I production is subtracted from the angiotensin I production which is determined. The difference between the maximal value and the base value gives the value of the maximal substrate hydrolysis (=100% ) by renin.
The results are given as IC50 values which denote that concentration of the inhibitor at which the enzymatic activity is inhibited by 50%. The IC50 values are determined from a linear regression curve from a logit-log plot.

For the next experiment, the target named is T2, renin in human plasma (Homo sapiens, UniProt P00797).
T2 construct: The test solution comprises (1) 225 μl of plasma; from tissue; host or cells: human plasma
T2 sequence (P00797 67-406): T1 sequence (P00797 67-406)
In words: Test B: in vitro test with human plasma. To be noted: pH 6, 3 hours at 37° C., angiotensin I by RIA. In kind it is biochemical. Here is the method: B. In vitro test with human plasma
The test solution comprises (1) 225 μl of plasma, (2) 10 μl of 8-hydroxyquinoline sulphate in water, (3) 12 μl of sodium phosphate buffer (0.1M), pH 7.4, and […] of different concentrations of renin inhibitor in dimethyl sulphoxide. Tho resulting pH value (pH 6) of tho test solution is stable for the duration of the subsequent incubation. The test tubes are then incubated at 37° C. for 3 hours. The enzyme activity is expressed by determining the angiotensin I produced, which is determined using a comercially available radioimmunoassay kit (Clinical Assays, Cambridge, Mass.).
as §1
MaxP: Maximal production (maximal enzyme activity) in the absence of a renin inhibitor.
MinP: Minimal production (enzyme activity blank) in the presence of a supramaximal concentration of a renin inhibitor.
The MinP is subtracted from the respective angiotensin production in each experiment. These values are converted into percentage inhibition by comparison with the maximal enzyme activity MaxP-MinP. The degree of inhibition is expressed by the IC50 value, i.e. the concentration of inhibitor which reduces the accumulation of angiotensin I by 50%.

Usually IC50 stands for the midpoint of a concentration-inhibition curve. A lower IC50 goes with higher potency. With `COC(=O)[C@H](NC(=O)OC(C)(C)C)C(C)(C)S(=O)(=O)CC(Cc1ccccc1)C(=O)N[C@@H](Cc1c[nH]cn1)C(=O)N[C@@H](CC1CCCCC1)[C@@H](O)[C@@H](O)C1CC1` (single isomer, unassigned) [C, tert-Butyl [(S)-2-[[(S or R)-2-[[(S)-1-[[(1S,2R,3S)-1-(cyclohexylmethyl)-3-cyclopropyl-2,3-dihydroxypropyl]carbamoyl]-2-imidazol-4-ylethyl]carbamoyl]-3-phenylpropyl]sulfonyl]-1-(methoxycarbonyl)-2-methylpropyl]carbamate], the IC50 against human renin was determined as 0.061 nM; on renin in human plasma, 0.14 nM.

Take `COCC(=O)OCC(C)(C)S(=O)(=O)CC(Cc1ccccc1)C(=O)N[C@@H](Cc1c[nH]cn1)C(=O)N[C@@H](CC1CCCCC1)[C@@H](O)[C@@H](O)C1CC1` (single isomer, unassigned) [D, 2-[[(S or R)-2-[[(S)-1-[[(1S,2R,3S)-1-(cyclohexylmethyl)-3-cyclopropyl-2,3-dihydroxypropyl]carbamoyl]-2-imidazol-4-ylethyl]carbamoyl]-3-phenylpropyl]sulfonyl]-2-methylpropyl methoxyacetate]: the IC50 against human renin is 0.2 nM; at renin in human plasma, under 0.1 nM.

For `CC(C)(C(=O)N1CCOCC1)S(=O)(=O)C[C@@H](Cc1ccccc1)C(=O)N[C@@H](Cc1c[nH]cn1)C(=O)N[C@@H](CC1CCCCC1)[C@@H](O)[C@@H](O)C1CC1` [A, (S)-N-[(1S,2R,3S)-1-(Cyclohexylmethyl)-3-cyclopropyl-2,3-dihydroxypropyl]-α-[(S)-α-[[[1-(morpholinocarbonyl)-1-methylethyl]sulfonyl]methyl]hydrocinnamamido]imadazole-4-propionamide], the half-inhibitory concentration (IC50) came to 0.03 nM on human renin and 0.1 nM at renin in human plasma.

For `CC(C)(C(=O)N[C@H]1C(O)O[C@H](CO)[C@@H](O)[C@@H]1O)S(=O)(=O)C[C@@H](Cc1ccccc1)C(=O)N[C@@H](Cc1c[nH]cn1)C(=O)N[C@@H](CC1CCCCC1)[C@@H](O)[C@@H](O)C1CC1` (stereo partly drawn) [B, 2-[2-[[(S)-2-[[(S)-1-[[(1S,2R,3S)-1-(Cyclohexylmethyl)-3-cyclopropyl-2,3-dihydroxypropyl]carbamoyl]-2-imidazol-4-ylethyl]carbamoyl]-3-phenylpropyl]sulfonyl]-2-methylpropionamido]-2-deoxy-D-glucopyranose], the IC50 came out at 0.3 nM against human renin and 0.11 nM at renin in human plasma.
